Assay results taken from ChEMBL document CHEMBL1124763, “Nucleoside conjugates. 11. Synthesis and antitumor activity of 1-beta-D-arabinofuranosylcytosine and cytidine conjugates of thioether lipids” (1990).

Key:
Mus musculus [1] = assay: Increase of life span was determined against Ip implanted L1210 / ara-C (II) lymphoid leukemia in mice at a dose of 300 mg/kg per day; type: functional; details: route intraperitoneal
Mus musculus [2] = assay: Increase of life span was determined against Ip implanted L1210 / 0 lymphoid leukemia in mice at a dose of 300 mg/kg per day after treatment 1; type: functional; details: L1210/0, ip, route intraperitoneal
Mus musculus [3] = assay: Range of survival days for antitumor activity against Ip implanted L1210 / ara-C (II )lymphoid leukemia in mice at a dose of 300 mg/kg per day; range is 7-8; type: functional; details: route intraperitoneal
Mus musculus [4] = assay: Range of survival days for antitumor activity against Ip implanted L1210 / 0 lymphoid leukemia in mice at a dose of 300 mg/kg per day after treatment 1; range is 7-9; type: functional; details: route intraperitoneal
Mus musculus [5] = assay: Survival time treated/survival time tested (T/C) for antitumor activity against Ip implanted L1210 / ara-C (II) lymphoid leukemia in mice at a dose of 300 mg/kg per day;8/9; type: functional; details: route intraperitoneal
Mus musculus [6] = assay: Median survival time for antitumor activity against Ip implanted L1210 / 0 lymphoid leukemia in mice at a dose of 300 mg/kg per day after treatment 1;7.5-8; details: route intraperitoneal
Mus musculus [7] = assay: Increase of life span was determined against Ip implanted L1210 / 0 lymphoid leukemia in mice at a dose of 200 mg/kg per day after treatment 1-5; type: functional; details: L1210/0, ip, route intraperitoneal
Mus musculus [8] = assay: Increase of life span was determined against Ip implanted L1210 / 0 lymphoid leukemia in mice at a dose of 400 mg/kg per day after treatment 1; type: functional; details: L1210/0, ip, route intraperitoneal
Mus musculus [9] = assay: Increase of life span was determined against Ip implanted L1210 / 0 lymphoid leukemia in mice at a dose of 400 mg/kg per day after treatment 5; type: functional; details: L1210/0, ip, route intraperitoneal
Mus musculus [10] = assay: Range of survival days for antitumor activity against Ip implanted L1210 / 0 lymphoid leukemia in mice at a dose of 400 mg/kg per day after treatment 1; range is 8-10; type: functional; details: route intraperitoneal
Mus musculus [11] = assay: Range of survival days for antitumor activity against Ip implanted L1210 / 0 lymphoid leukemia in mice at a dose of 400 mg/kg per day after treatment 5; type: functional; details: route intraperitoneal
Mus musculus [12] = assay: Range of survival days for antitumor activity against Ip implanted L1210 / 0 lymphoid leukemia in mice at a dose of 200 mg/kg per day after treatment 1-5; range is 15-17; type: functional; details: route intraperitoneal
Mus musculus [13] = assay: Survival time treated for antitumor activity against Ip implanted L1210 / 0 lymphoid leukemia in mice at a dose of 400 mg/kg per day after treatment 1;8/7; details: route intraperitoneal
Mus musculus [14] = assay: Survival time treated for antitumor activity against Ip implanted L1210 / 0 lymphoid leukemia in mice at a dose of 400 mg/kg per day after treatment 5;10/7; details: route intraperitoneal
Mus musculus [15] = assay: Survival time treated for antitumor activity against Ip implanted L1210 / 0 lymphoid leukemia in mice at a dose of 200 mg/kg per day after treatment 1-5;16/7; details: route intraperitoneal
Mus musculus [16] = assay: Increase of life span was determined against Ip implanted L1210 / 0 lymphoid leukemia in mice at a dose of 100 mg/kg per day after treatment 1; type: functional; details: L1210/0, ip, route intraperitoneal
Mus musculus [17] = assay: Increase of life span was determined against Ip implanted L1210 / 0 lymphoid leukemia in mice at a dose of 200 mg/kg per day after treatment 1; type: functional; details: L1210/0, ip, route intraperitoneal
Mus musculus [18] = assay: Range of survival days for antitumor activity against Ip implanted L1210 / 0 lymphoid leukemia in mice at a dose of 100 mg/kg per day after treatment 1; range is 4-11; type: functional; details: route intraperitoneal
Mus musculus [19] = assay: Range of survival days for antitumor activity against Ip implanted L1210 / 0 lymphoid leukemia in mice at a dose of 200 mg/kg per day after treatment 1; type: functional; details: route intraperitoneal
Mus musculus [20] = assay: Survival time treated / survival time (T/C) for antitumor activity against Ip implanted L1210 / 0 lymphoid leukemia in mice at a dose of 200 mg/kg per day after treatment 1;6/7; type: functional; details: route intraperitoneal
Mus musculus [21] = assay: Survival time treated / survival time (T/C) for antitumor activity against Ip implanted L1210 / 0 lymphoid leukemia in mice at a dose of 100 mg/kg per day after treatment 1;9.5/7; type: functional; details: route intraperitoneal

CCCCCCCCCCCCCCCCCCSCC(COP(=O)(O)OP(=O)(O)OC[C@H]1O[C@@H](n2ccc(N)nc2=O)[C@H](O)[C@@H]1O)OC(=O)CCCCCCCCCCCCCCC (mixture of isomers)
ILS at 300 mg/kg/day (Mus musculus [1]): -11%
ILS at 300 mg/kg/day (Mus musculus [2]): -6%
Range of survival days (Mus musculus [3]): 7
Range of survival days (Mus musculus [4]): 7
median survival time (Mus musculus [5]): 8 days
median survival time (Mus musculus [6]): 7.5 days

Nc1ccn([C@@H]2O[C@H](CO)[C@@H](O)[C@@H]2O)c(=O)n1 [CYTARABINE]
ILS at 200 mg/kg/day (Mus musculus [7]): 129%
ILS at 400 mg/kg/day (Mus musculus [8]): 14%
ILS at 400 mg/kg/day (Mus musculus [9]): 43%
Range of survival days (Mus musculus [10]): 8
Range of survival days (Mus musculus [11]): 10
Range of survival days (Mus musculus [12]): 15
survival time (Mus musculus [13]): 8 days
survival time (Mus musculus [14]): 10 days
survival time (Mus musculus [15]): 16 days

CCCCCCCCCCCCCCCCCCSCC(COP(=O)(O)OP(=O)(O)OC[C@H]1O[C@@H](n2ccc(N)nc2=O)[C@@H](O)[C@@H]1O)OC (mixture of isomers)
ILS at 100 mg/kg/day (Mus musculus [16]): 36%
ILS at 200 mg/kg/day (Mus musculus [17]): -14%
Range of survival days (Mus musculus [18]): 4
Range of survival days (Mus musculus [19]): 6
T/C (Mus musculus [20]): 6
T/C (Mus musculus [21]): 9.5
